Laboratory results: patent US5756776A, “Semi-synthetic taxanes with anti-tumoural activity” (Indena S.p.A., priority 1994, dated 1998)

Key:
Format in all cases: cell-based
[1] = system: A121 (Human ovarian); experiment: cytotoxic effect on A121 tumour cell line (comparison with taxol); conditions: exposure time 72 h, RPMI 1640 + 20 mM HEPES + 2 mM L-glutamine
Experimental: (§1) The products of the present invention were screened for their cytotoxic effect on different tumour cell lines, comparing their action with that of taxol.
(§2) Standard conditions: substrate RPMI 1640 + 20 mM HEPES + 2 mM Lglutamine.

[2] = system: A549 (Human NSCLC); experiment: cytotoxic effect on A549 tumour cell line (comparison with taxol); conditions: exposure time 72 h, RPMI 1640 + 20 mM HEPES + 2 mM L-glutamine
Experimental: as §1, §2

[3] = system: MCF7 (Human breast); experiment: cytotoxic effect on MCF7 tumour cell line (comparison with taxol); conditions: exposure time 72 h, RPMI 1640 + 20 mM HEPES + 2 mM L-glutamine
Experimental: as §1, §2

[4] = system: MCF7-ADR (resistant); experiment: cytotoxic effect on MCF7-ADR resistant tumour cell line (comparison with taxol); conditions: exposure time 72 h, RPMI 1640 + 20 mM HEPES + 2 mM L-glutamine
Experimental: as §1, §2

[5] = system: HT-29 (Human colon); experiment: cytotoxic effect on HT-29 tumour cell line (comparison with taxol); conditions: exposure time 72 h, RPMI 1640 + 20 mM HEPES + 2 mM L-glutamine
Experimental: as §1, §2

[6] = system: L1210 (murine leukemia); experiment: cytotoxic effect on L1210 tumour cell line (comparison with taxol); conditions: exposure time 48 h, RPMI 1640 + 20 mM HEPES + 2 mM L-glutamine
Experimental: as §1, §2

13-[(2R, 3S)-3-phenyl-2-hydroxy-3-tert-butoxycarbonylamino-propanoyl]-10-deacetyl-11,12-dihydrobaccatine III [1b]
IC50 [1]: 1.6 ± 0.2 nM
IC50 [2]: 2.1 ± 0.3 nM
IC50 [3]: 0.8 ± 0.2 nM
IC50 [4]: 128 ± 6.2 nM
IC50 [5]: 3.6 ± 0.4 nM
IC50 [6]: 32 ± 0.1 nM

CC(=O)O[C@@]12CO[C@@H]1C[C@H](O)[C@@]1(C)C(=O)[C@@H](O)C3=C(C)[C@@H](OC(=O)[C@H](O)[C@@H](NC(=O)OC(C)(C)C)c4ccccc4)C[C@@](O)([C@@H](OC(=O)c4ccccc4)[C@H]21)C3(C)C [1a, 13-[(2R, 3S)-3-phenyl-2-hydroxy-3-tert-butoxycarbonylamino-propanoyl]-10-epi-10-deacetylbaccatine III]
IC50 [1]: 2.8 ± 0.3 nM
IC50 [2]: 6.9 ± 0.3 nM
IC50 [3]: 2.2 ± 0.2 nM
IC50 ([4]; Homo sapiens, NCI/ADR-RES): 130 ± 2.2 nM
IC50 [5]: 3.4 ± 0.1 nM
IC50 ([6]; Mus musculus): 46 ± 2.1 nM

CC(=O)O[C@@]1([C@@H]2C(C)=C(O)C(=O)C3=C(C)[C@@H](OC(=O)[C@H](O)[C@@H](NC(=O)OC(C)(C)C)c4ccccc4)C[C@@](O)([C@H]2OC(=O)c2ccccc2)C3(C)C)CO[C@@H]1CCO [5a, 13-[(2R, 3S)-3-phenyl-2-hydroxy-3-tert-butoxy-carbonylamino-propanoyl]-C-seco-10-deacetylbaccatine III]
IC50 [1]: 1.9 nM
IC50 [2]: 3.3 nM
IC50 [3]: 1.5 nM
IC50 ([4]; Homo sapiens, NCI/ADR-RES): 31.3 nM
IC50 [5]: 3.2 nM
IC50 ([6]; Mus musculus): 35 ± 1.2 nM
